# Data reported in US20240252463A1, “METHODS OF TREATING FIBROTIC PATHOLOGIES” (Mayo Foundation for Medical Education and Research, priority 2018, published 2024).
# Experiments:
# [1] = tested on: Collagen I and Fibronectin; assay: Immuno-ECM: TGFβ-stimulated accumulation of collagen I and fibronectin; type: cell-based, human; conditions: IPF patient-derived fibroblasts, TGFβ 48 hours then DHX 24 hours
# Experimental: Immuno-ECM: Adapting from previously published methods, IPF patient-derived fibroblasts were plated to confluence in clear-bottom 96-well plates. After cells attached, the medium was swapped for EMEM containing 0.1% FBS+2 ng/mL TGF-β. After 48 hours the indicated concentration of DHX or DMSO control was added to each well and incubated for 24 hours. WST-1 viability reagent was added to each well (Sigma-Aldrich) and measured on a Flexstation 3 (Molecular Devices) plate reader. Cells were then fixed in 3.7% formalin (Sigma-Aldrich), and permeabilized in 0.25% Triton X-100 (Sigma-Aldrich). Wells were washed with tris-buffered saline (TBS) and blocked with Li-Cor Odyssey Blocking Buffer for 60 minutes before overnight incubation in a polyclonal rabbit antibody for fibronectin (Sigma sc-9068) or collagen I (Novus NB600-408) diluted 1:200 in blocking buffer. Wells were washed with TBS-Tween before 45 minute incubation with IR-dye-conjugated secondary antibody (Li-Cor #926-32211) diluted 1:400. Plates were imaged via a Li-Cor OdysseyXL system with quantification performed via densitometry. Data are expressed as IR intensity relative to WST-1 signal absorbance in order to account for any potential compound toxicity.
# [2] = tested on: IPF patient derived fibroblasts; assay: Traction Force Microscopy of IPF patient derived fibroblasts; type: cell-based, human; conditions: IPF fibroblasts on 6.4 kPa matrices
# Experimental: Traction Force Microscopy: Traction analysis was conducted as previously described. Briefly, polyacrylamide substrates with shear moduli of 6.4 kPa were prepared, and fluorescent sulfate-modified latex microspheres (0.2 μm, 505/515 ex/em) (FluoSpheres, Life Technologies) were conjugated to the gel surfaces after treatment with 1 mg ml^−1 of dopamine hydrochloride (Sigma-Aldrich) in 50 mM HEPES solution (pH 8.5). IPF patient derived fibroblasts were plated on the gels overnight and treated as indicated before traction force measurements. Images of gel surface-conjugated fluorescent beads were acquired for each cell before and after trypsinization using a Nikon ECLIPSE Ti microscope at ×10 magnification. Traction forces were estimated by measuring bead displacement fields and computing corresponding traction fields using TractionsForAll (freely distributed program that calculates 2-D tractions exerted by an adherent cell on its substrate).
# [3] = tested on: hepatic stellate cells (HSCs); assay: Western blot of αSMA and Fibronectin in TGFβ-stimulated hepatic stellate cells; type: cell-based, human; conditions: TGFβ 48 hours +/- DHX 10 μM
# Experimental: FIGS. 10A-10D DHX reverses hepatic stellate cell activation and in vivo hepatic fibrosis. 10a. DRD1 is preferentially expressed in cultured human hepatic stellate cells (HSCs): ACTA2, PDGFRA positive, relative to cultured human hepatocytes (Heps): ALB positive. N=1. 10b. DHX inhibits TGFβ-mediated hepatic stellate cell activation in vitro. HSCs were stimulated with TGFβ for 48 hours+/−DHX (10 μM) prior to total protein isolation and western blot analysis of αSMA and Fibronectin. N=3 (***p<0.001, **p<0.01, *p<0.05 vs. Control+TGFβ). 10c. DHX reverses Bile duct ligation (BDL) mediated fibrosis in vivo measured by trichrome staining, and 10d. hydroxyproline. Sham Control N=5, BDL Control N=7, and BDL DHX N=8 (**p<0.01 vs. BDL Control).
# Western Blotting: Cells were plated in EMEM containing 10% FBS overnight. Media was exchanged with EMEM containing 0.1% FBS for 24 hours. Prior to protein isolation cells were treated with the indicated concentration of compounds for the indicated time. Total protein was isolated using RIPA buffer (pH 8.0) containing Pierce Phosphatase Inhibitor (Thermo) and Halt Protease Inhibitor Cocktail (Thermo). Lysate total protein concentration was determined using Pierce BCA Protein Assay Kit (Thermo) and samples were run on a 10% polyacrylamide gel. […] Plates were imaged via a Li-Cor OdysseyXL system with quantification performed via densitometry.
# YAP/TAZ target genes = assay: YAP/TAZ target gene expression in flow-sorted lung cells of bleomycin-injured mice; type: in vivo, mouse; conditions: bleomycin day 10, two doses of DHX (2 and 24 hours prior to collecting lungs)
# Experimental: 29A. Two groups of mice were injured intratracheally with bleomycin at day 0, on day 10 one group received two doses of DHX (2 and 24 hours prior to collecting lungs) and the other received vehicle control. On day 11 lungs were collected to flow sort fibroblasts, epithelial, and endothelial cells. 29B. Changes in RNA expression of YAP/TAZ target genes from freshly isolated cells.
# Cell Sorting: FACS: PBS perfused mouse lungs were finely minced with a razor blade in a 100 mm petri dish in 1 mL of cold DMEM medium containing 0.2 mg ml^−1 Liberase DL (Roche) and 100 U ml^−1 DNase I (Roche). The mixture was transferred to 15 ml tubes and incubated at 37° C. for 30 min in a water bath. Enzymatic digestion was inactivated by adding DMEM medium containing 10% fetal bovine serum. The cell suspension was passed once through a 40 µm cell strainer (Fisher) to remove multicellular debris. Cells were then centrifuged at 1,300 r.p.m. at 4° C. for 10 min, washed once in PBS and resuspended in 0.2 ml of FACS buffer (1% BSA, 0.5 μM EDTA pH 7.4 in PBS). The single cell suspension was then incubated with anti-CD45-PerCp-Cy5.5, anti-CD31-PE, anti-PDGFRα-APC and anti-EpCAM-BV421 antibodies (1:200) (Biolegend) for 20 min on ice. After incubation, cells were washed with ice-cold FACS buffer and resuspended in 1 ml of FACS buffer. FACS sorting was conducted using a BD FACS Aria II (BD Biosciences). […]
smiles,measurement,setting,value
"Oc1cc2c(cc1O)[C@H]1c3ccccc3CN[C@@H]1CC2 (racemic) [Dihydrexidine, dihydrexidine]",TGFβ-stimulated accumulation of collagen I and fibronectin,[1],dose-dependently reversed
same,contractile forces (traction force microscopy),[2],significantly and dose-dependently reduced the contractile forces
same,TGFβ-mediated HSC expression of SMA and FN protein,[3],significant reversal of both
same,"expression of YAP/TAZ target genes in freshly isolated lung fibroblasts, epithelial and endothelial cells",YAP/TAZ target genes,selectively blocks expression of YAP/TAZ target genes in lung fibroblasts in vivo
